35 molecules from US8575203B2, “Chemical compounds” (Boehringer Ingelheim International GmbH, priority 2010, dated 2013) can be followed below.

Structures are written as SMILES.

Chain of Recombinant human PDK1 enzyme (aa 52-556) (O15530 52-556): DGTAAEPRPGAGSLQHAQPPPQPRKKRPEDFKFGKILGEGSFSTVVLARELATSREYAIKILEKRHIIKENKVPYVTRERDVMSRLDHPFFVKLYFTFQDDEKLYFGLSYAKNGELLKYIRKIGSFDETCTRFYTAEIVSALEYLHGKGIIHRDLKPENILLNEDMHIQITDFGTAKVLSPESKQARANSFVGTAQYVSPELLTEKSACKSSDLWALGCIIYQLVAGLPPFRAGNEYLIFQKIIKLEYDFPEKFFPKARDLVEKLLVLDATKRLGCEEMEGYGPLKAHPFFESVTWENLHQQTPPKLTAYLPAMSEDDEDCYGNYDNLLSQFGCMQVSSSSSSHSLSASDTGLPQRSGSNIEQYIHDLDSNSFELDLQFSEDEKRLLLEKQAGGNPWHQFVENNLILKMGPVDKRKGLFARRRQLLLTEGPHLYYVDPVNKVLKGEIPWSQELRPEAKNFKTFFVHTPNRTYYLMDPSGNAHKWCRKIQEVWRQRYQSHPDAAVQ

This assay addresses Recombinant human PDK1 enzyme (aa 52-556) (Homo sapiens (Human), UniProt O15530). As to the kind of experiment: PDK1 kinase assay. It counts as biochemical. The settings on record: in vitro kinase assay, His6-PDK1 (aa 52-556), PDKtide, P33-ATP. The method in brief:
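His6-tagged human PDK1 (aa 52-556) from baculovirus-infected insect cells, 3.33 ng/well, with 25 μM PDKtide in Tris pH 7.5/10 mM Mg-acetate. Compound (from 10 μM, 1:5 steps) was preincubated 30 min at RT, then 25 μM ATP solution with γ-33P-ATP was added for 90 min at RT. Phosphoric-acid-precipitated 33P was counted on filters.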
By IC50 is commonly meant the concentration that inhibits the measured activity by half. Consider `CC(C)N(C)c1c(C#N)cnc2ccc(C#CCNC(=O)c3cccn(Cc4ccc(F)c(F)c4)c3=O)cc12` [II-101], for which the IC50 is 148 nM.
Take `O=C(NCC#Cc1ccc2nccc(OCC3CCNC3)c2c1)c1cncn(Cc2ccc(F)c(F)c2)c1=O` (centres unmarked) [I-122]: the IC50 was 3 nM.
Consider `CCN1CCC(Nc2cnc3ccc(C#CCNC(=O)c4cccn([C@H](CO)c5cccc(F)c5)c4=O)cc3c2)CC1` [I-76], for which the concentration for half-maximal inhibition (IC50) is 2 nM.
`CCN1CCC(CN(C)c2ncnc3ccc(C#CCNC(=O)c4cccn(Cc5ccc(F)c(F)c5)c4=O)cc23)C1` (centres unmarked) [II-47]: the 50% inhibitory concentration (IC50) was 117 nM.
For the molecule `O=C(NCC#Cc1ccc2ncc(NC3CCN(C4COC4)CC3)nc2c1)c1cccn([C@H](CO)c2cccc(F)c2)c1=O` [I-63], the IC50 is 4 nM.
`CNc1ncnc2ccc(C#CCNC(=O)c3cc(NCCN(C)C)nn(Cc4ccc(F)c(F)c4)c3=O)cc12` [II-57]: the IC50 is 357 nM.
As for `CN1CCN(Nc2cnc3ccc(C#CCNC(=O)c4cncn(Cc5ccc(F)c(F)c5)c4=O)cc3n2)CC1` [I-36], the figure is 87 nM; as for `CN(C)CCCOc1ccnc2ccc(C#CCNC(=O)c3cccn(C(CO)c4ccc(F)c(F)c4)c3=O)cc12` (centres unmarked) [I-125], 2 nM.
Turning to `O=C(NCC#Cc1ccc2nccc(C3=CCCNC3)c2c1)c1cncn(Cc2ccc(F)c(F)c2)c1=O` [II-91], the concentration for half-maximal inhibition (IC50) came to 14 nM.
Next, `CN(Cc1cnn(-c2ccc(F)cc2)c1)c1ncnc2ccc(C#CCNC(=O)c3cccn(Cc4ccc(F)c(F)c4)c3=O)cc12` [II-44]: 40 nM; `CNc1ncnc2ccc(C#CCNC(=O)c3cncn(Cc4ccccc4F)c3=O)cc12` [II-53]: 486 nM.
For `CN1CCC(NC(=O)c2cnc3ccc(C#CCNC(=O)c4cncn(Cc5ccc(F)c(F)c5)c4=O)cc3c2)CC1` [II-74], the concentration for half-maximal inhibition (IC50) worked out at 12 nM.
As for `N#Cc1cnc2ccc(C#CCNC(=O)c3cccn(Cc4ccc(F)c(F)c4)c3=O)cc2c1NCc1ccccc1` [II-102], the figure is 871 nM.
For `O=C(NCC#Cc1ccc2ncnc(NCC(O)c3ccccc3)c2c1)c1cncn(Cc2ccc(F)c(F)c2)c1=O` (centres unmarked) [II-13], the IC50 turned out to be 184 nM.
`O=C(NCC#Cc1ccc2ncc(C(=O)N3CCOCC3)cc2c1)c1cncn(Cc2ccc(F)c(F)c2)c1=O` [II-82]: the IC50 was found to be 531 nM.
Turning to `O=C(NCC#Cc1ccc2nccc(NC3CC3)c2c1)c1cccn(Cc2ccc(F)c(F)c2)c1=O` [I-116], the IC50 was determined as 1000 nM.
Take `NC(=O)CCNc1ncnc2ccc(C#CCNC(=O)c3cccn(Cc4ccc(F)c(F)c4)c3=O)cc12` [II-33]: the concentration for half-maximal inhibition (IC50) came to 79 nM.
Turning to `CC1CN(C)CCC1Nc1ncnc2ccc(C#CCNC(=O)c3cncn(Cc4ccc(F)c(F)c4)c3=O)cc12` (centres unmarked) [II-25], the IC50 was 126 nM.
In the case of `CON(C)c1ncnc2ccc(C#CCNC(=O)c3cncn(Cc4ccc(F)c(F)c4)c3=O)cc12` [II-62], the concentration for half-maximal inhibition (IC50) turned out to be 16 nM.
In the case of `C[C@@H](c1cc(F)c(F)c(F)c1)n1cccc(C(=O)NCC#Cc2ccc3nccc(OC[C@@H]4CCCN(CCN5CCOCC5)C4)c3c2)c1=O` [I-125.20], the 50% inhibitory concentration (IC50) was determined as 17 nM.
Regarding `N#Cc1cnc2ccc(C#CCNC(=O)c3cccn(Cc4ccc(F)c(F)c4)c3=O)cc2c1NCCc1ccccc1` [II-96], the concentration for half-maximal inhibition (IC50) worked out at 607 nM.
Turning to `COC(C)CCOc1ccnc2ccc(C#CCNC(=O)c3cccn(Cc4ccc(F)c(F)c4)c3=O)cc12` (centres unmarked) [I-110], the IC50 is 137 nM.
`NC1CCC(Nc2cnc3ccc(C#CCNC(=O)c4cncn(Cc5ccc(F)c(F)c5)c4=O)cc3n2)C1` (centres unmarked) [I-44]: the IC50 is 11 nM.
On to `CN(C)CCOc1ccnc2ccc(C#CCNC(=O)c3cncn(Cc4ccc(F)c(F)c4)c3=O)cc12` [I-99], for which the IC50 came to 36 nM.
Consider `Cc1ncnc2ccc(C#CCNC(=O)c3cncn(Cc4ccc(F)c(F)c4)c3=O)cc12` [II-66], for which the concentration for half-maximal inhibition (IC50) was found to be 98 nM.
Next, `CCOc1ccnc2ccc(C#CCNC(=O)c3cccn(C(CO)c4ccc(F)c(F)c4)c3=O)cc12` (centres unmarked) [I-125.15]: 11 nM.
On to `CN(C)CCCOc1ccnc2ccc(C#CCNC(=O)c3cncn(Cc4ccc(F)c(F)c4)c3=O)cc12` [I-88], for which the IC50 was determined as 15 nM.
For the molecule `O=C(NCC#Cc1ccc2nccc(OC3CCNCC3)c2c1)c1cncn(Cc2ccc(F)c(F)c2)c1=O` [I-113], the 50% inhibitory concentration (IC50) turned out to be 15 nM.
For the molecule `COc1ccnc2ccc(C#CCNC(=O)c3cccn(Cc4ccc(F)c(F)c4)c3=O)cc12` [I-92], the concentration for half-maximal inhibition (IC50) stood at 128 nM.
As for `CCN(CC)c1ncnc2ccc(C#CCNC(=O)c3cccn(C(C)c4ccc(F)c(F)c4)c3=O)cc12` (centres unmarked) [II-54], the figure is 8 nM.
For `CN(C)CC(C)(C)COc1ccnc2ccc(C#CCNC(=O)c3cncn(Cc4ccc(F)c(F)c4)c3=O)cc12` [I-102], the IC50 was found to be 13 nM.
As for `O=C(NCC#Cc1ccc2nccc(OCC3CCOCC3)c2c1)c1cncn(Cc2ccc(F)c(F)c2)c1=O` [I-125.6], the figure is 26 nM.
In the case of `CNc1ncnc2ccc(C#CCNC(=O)c3cc(Cl)nn(Cc4ccc(F)c(F)c4)c3=O)cc12` [II-58], the IC50 worked out at 10 nM.
`CN1CCN(c2cnc3ccc(C#CCNC(=O)c4cncn(Cc5ccc(F)c(F)c5)c4=O)cc3n2)CC1` [I-24]: the IC50 was determined as 117 nM.
Regarding `N[C@H]1CC[C@H](Nc2cnc3ccc(C#CCNC(=O)c4cncn(Cc5ccc(F)c(F)c5)c4=O)cc3n2)CC1` [I-34], the concentration for half-maximal inhibition (IC50) turned out to be 3 nM.
